Experimental data: US8841456B2, “1,5-naphthyridine derivative or salt thereof” (FUJIFILM Corporation, priority 2011, dated 2014)
Read-outs that look alike come from different tables or passages of the source.

Assays:
[1] = biological target: T1, glutathione S-transferase (GST)-fusion human ERK2 protein (Homo sapiens, UniProt P28482); experiment: ERK2 enzyme assay (LabChip mobility shift); assay type: biochemical; details: 2 nM ERK2, 4.25 μM FL-Peptide 8, 43 μM ATP
T1 construct: purchased Carna Biosciences, Inc; host or cells: E. coli expression system
Method: Evaluation of the ERK2 inhibitory activity of the compound of the present invention was carried out according to the method as described below.
For the ERK2 enzyme assay, a glutathione S-transferase (GST)-fusion human ERK2 protein (Carna Biosciences, Inc.) produced using an E. coli expression system was used.
12 μL of the reaction solution (2 nM ERK2, 100 mM Hepes, 10 mM MgCl2, 1.5 mM DTT, 0.003% Brij35, pH 7.5) including the ERK2 protein and a test compound at a predetermined concentration was incubatedat room temperature for 15 minutes. Thereafter, 3 μL of a mixed solution of FL-Peptide 8 (5-FAM-IPTSPITTTYFFFKKK-COOH) (Caliper Lifescience) which was a substrate and ATP(SIGMA-ALDLICH) were added thereto to a final concentration of 4.25 μM and 43 μM, respectively. The reaction solution was further incubated at 25° C. for 120 minutes to carry out an enzyme reaction.
The enzyme reaction was stopped by adding 27 μL of a reaction-stopping solution (100 mM HEPES, 11.2 mM EDTA, 5.6% Brij35, pH 7.5) including a 0.5% Coating reagent 8 (PerkinElmer, Inc.) after the reaction. Thereafter, non-phosphorylated peptides and phosphorylated peptides were separated using LabChip Ez Reader (Caliper LifeScience, Inc.) to quantify the proportion of phosphorylated peptides.
(§1) The inhibitory activity of the compounds was evaluated using an IC50 (50% inhibitory concentration). The IC50 was calculated using XLfit (IDBS).

[2] = biological target: T2, human PI3Kα protein (Homo sapiens, UniProt P42336); experiment: PI3Kα enzyme assay (ADP-Glo kinase assay); assay type: biochemical; details: 3 nM PI3Kα, 50 μM PIP2, 100 μM ATP
T2 construct: purchased Carna Biosciences, Inc; host or cells: Baculovirus expression system
Method: Evaluation of the PI3Kα inhibitory activity of the compound of the present invention was carried out according to the method as described below.
For the PI3Kα enzyme assay, biotinylated product of a human PI3Kα protein produced using a Baculovirus expression system (Carna Biosciences, Inc.) was used. Further, for the detection of the enzyme activity, an ADP-Glo kinase assay (PROMEGA Corporation) was used.
10 μL of a reaction solution (3 nM PI3Kα, 40 mM Tris-HCl, 20 mM MgCl2, 0.1% BSA, pH 7.5) including the human PI3Kα protein and a test compound at a predetermined concentration was incubated at room temperature for 15 minutes. Thereafter, 5 μL of a mixed solution of L-α-Phosphatidylinositol 4,5-diphosphate (PIP2) (SIGMA-ALDLICH) which was a substrate and ATP(SIGMA-ALDLICH) was added thereto to a final concentration of 50 μM and 100 μM, respectively, and the reaction solution was further incubated at 25° C. for 60 minutes to carry out an enzyme reaction.
After the reaction, 15 μL of an ADP-Glo reagent (PROMEGA Corporation) was added and the resulting liquid was incubated at room temperature for 60 minutes, whereby the enzyme reaction was stopped. Thereafter, after further adding 30 μL of a Kinase Detection Reagent (PROMEGA Corporation) and standing the resulting solution at room temperature for 40 minutes, ADP produced by the enzyme reaction was quantified by luminescence intensity.
For the measurement of luminescence intensity, EnVision (PerkinElmer, Inc.) was used.
as §1

[3] = IC50 class, read-out: ERK2 Inhibitory Activity
[4] = IC50 class, read-out: PI3Kα Inhibitory Activity

T2 sequence (P42336 whole entry): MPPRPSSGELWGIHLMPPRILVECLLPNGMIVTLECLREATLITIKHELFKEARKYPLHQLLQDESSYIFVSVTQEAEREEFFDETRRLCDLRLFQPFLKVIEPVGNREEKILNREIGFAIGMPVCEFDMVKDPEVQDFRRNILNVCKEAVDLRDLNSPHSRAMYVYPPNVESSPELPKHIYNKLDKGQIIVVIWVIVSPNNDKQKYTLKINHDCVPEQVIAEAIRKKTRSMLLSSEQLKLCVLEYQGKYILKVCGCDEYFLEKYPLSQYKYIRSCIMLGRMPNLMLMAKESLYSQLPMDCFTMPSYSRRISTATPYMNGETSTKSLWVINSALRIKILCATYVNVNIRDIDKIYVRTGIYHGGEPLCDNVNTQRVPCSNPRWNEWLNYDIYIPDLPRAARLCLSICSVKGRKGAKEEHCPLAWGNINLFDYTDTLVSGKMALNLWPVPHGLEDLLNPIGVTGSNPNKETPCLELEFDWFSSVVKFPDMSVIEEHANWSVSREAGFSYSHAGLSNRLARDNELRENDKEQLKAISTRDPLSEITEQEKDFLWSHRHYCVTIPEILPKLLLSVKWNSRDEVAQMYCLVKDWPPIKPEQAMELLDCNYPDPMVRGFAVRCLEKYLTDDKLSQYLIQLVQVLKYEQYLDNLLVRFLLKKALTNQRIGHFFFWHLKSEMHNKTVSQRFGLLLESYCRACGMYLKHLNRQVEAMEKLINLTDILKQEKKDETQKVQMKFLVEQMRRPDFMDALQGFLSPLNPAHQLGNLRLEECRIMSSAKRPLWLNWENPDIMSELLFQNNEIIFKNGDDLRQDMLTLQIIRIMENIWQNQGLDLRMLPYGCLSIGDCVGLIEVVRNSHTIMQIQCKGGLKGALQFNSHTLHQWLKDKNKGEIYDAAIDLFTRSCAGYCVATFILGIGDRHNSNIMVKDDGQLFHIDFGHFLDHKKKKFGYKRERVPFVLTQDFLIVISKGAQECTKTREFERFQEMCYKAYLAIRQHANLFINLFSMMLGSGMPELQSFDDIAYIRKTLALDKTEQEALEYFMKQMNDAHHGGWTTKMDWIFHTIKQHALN
T2 sequence (P27986 whole entry partner): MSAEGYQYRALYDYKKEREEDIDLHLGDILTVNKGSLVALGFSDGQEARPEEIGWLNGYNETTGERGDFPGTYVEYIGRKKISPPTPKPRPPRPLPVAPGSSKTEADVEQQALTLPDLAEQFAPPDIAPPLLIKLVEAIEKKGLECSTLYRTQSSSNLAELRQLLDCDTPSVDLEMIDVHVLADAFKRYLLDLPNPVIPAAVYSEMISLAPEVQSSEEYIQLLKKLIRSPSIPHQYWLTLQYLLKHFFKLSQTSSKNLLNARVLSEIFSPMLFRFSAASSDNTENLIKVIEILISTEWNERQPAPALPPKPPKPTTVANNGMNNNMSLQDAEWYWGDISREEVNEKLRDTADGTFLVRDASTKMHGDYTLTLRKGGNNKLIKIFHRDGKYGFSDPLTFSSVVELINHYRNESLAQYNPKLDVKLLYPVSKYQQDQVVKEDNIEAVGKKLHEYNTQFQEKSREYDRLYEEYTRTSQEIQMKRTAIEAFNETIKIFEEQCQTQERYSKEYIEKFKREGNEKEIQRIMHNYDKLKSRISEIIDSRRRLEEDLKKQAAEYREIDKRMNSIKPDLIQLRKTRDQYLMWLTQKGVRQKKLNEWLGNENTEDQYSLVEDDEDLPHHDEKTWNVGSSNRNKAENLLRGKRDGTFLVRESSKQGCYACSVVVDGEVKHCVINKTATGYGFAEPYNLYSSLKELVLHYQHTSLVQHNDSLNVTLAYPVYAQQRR
T1 sequence (P28482 whole entry, the tested form may be a part): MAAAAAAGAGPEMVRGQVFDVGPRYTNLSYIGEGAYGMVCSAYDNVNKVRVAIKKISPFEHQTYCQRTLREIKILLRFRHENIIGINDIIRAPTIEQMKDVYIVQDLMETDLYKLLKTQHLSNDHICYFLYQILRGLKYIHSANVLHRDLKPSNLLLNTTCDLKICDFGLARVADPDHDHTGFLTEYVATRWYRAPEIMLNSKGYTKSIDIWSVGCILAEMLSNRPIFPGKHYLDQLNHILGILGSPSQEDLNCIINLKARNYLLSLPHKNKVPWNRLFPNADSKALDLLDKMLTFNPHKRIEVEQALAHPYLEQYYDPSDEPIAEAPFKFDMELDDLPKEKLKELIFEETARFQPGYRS

COc1cc(Nc2cnc3ccc(NC(=O)NC4CCCC4)nc3c2)cc(OC)c1 [Compound 0031]
IC50 [1, 3]: 1000 to 10000 nM
IC50 [2, 4]: < 100 nM

CC(C)(C)NC(=O)Nc1ccc2ncc(-c3cnn(CCCN4CCOCC4)c3)cc2n1 [Compound 0185]
IC50 [1, 3]: 100 to 1000 nM
IC50 [2, 4]: 1000 to 10000 nM

O=C(Nc1ccc2ncc(-c3cn[nH]c3)cc2n1)NC1CC1 [Compound 0067]
IC50 [1, 3]: < 100 nM
IC50 [2, 4]: 100 to 1000 nM

C[C@@H](NC(=O)Nc1ccc2ncc(-c3cnn(CCCN4CCOCC4)c3)cc2n1)C1CCCCC1 [Compound 0181]
IC50 [1, 3]: < 100 nM
IC50 [2, 4]: < 100 nM

CC1(NC(=O)Nc2ccc3ncc(-c4cn[nH]c4)cc3n2)CCC1 [Compound 0195]
IC50 [1, 3]: 100 to 1000 nM
IC50 [2, 4]: < 100 nM

C#Cc1cnc2ccc(NC(=O)NC3CCCC3)nc2c1 [Compound 0017]
IC50 [1, 3]: 1000 to 10000 nM
IC50 [2, 4]: 100 to 1000 nM

O=C(NCC1CCCC1)Nc1ccc2ncc(-c3cn[nH]c3)cc2n1 [Compound 0081]
IC50 [1, 3]: < 100 nM
IC50 [2, 4]: < 100 nM

CC1(NC(=O)Nc2ccc3ncc(N4CCOCC4)cc3n2)CCCC1 [Compound 0253]
IC50 [1, 3]: < 100 nM
IC50 [2, 4]: < 100 nM

O=C(Nc1ccc2ncc(-c3cn[nH]c3)cc2n1)NC1CCCc2ccccc21 (centres unmarked) [Compound 0065]
IC50 [1, 3]: < 100 nM
IC50 [2, 4]: 100 to 1000 nM

O=C(Nc1ccc2ncc(-c3cn[nH]c3)cc2n1)NC1CCC(Oc2ccccc2)C1 (centres unmarked) [Compound 0092]
IC50 [1, 3]: < 100 nM
IC50 [2, 4]: < 100 nM

O=C(Nc1ccc2ncc(-c3cnn(CCCN4CCOCC4)c3)cc2n1)NC1CCCC1 [Compound 0044]
IC50 ([1]; read-out: ERK2, IC50): 49 nM
IC50 [1, 3]: < 100 nM
IC50 ([2]; read-out: PI3Kα, IC50): 4 nM
IC50 [2, 4]: < 100 nM

O=C(NCc1ccccn1)Nc1ccc2ncc(-c3cn[nH]c3)cc2n1 [Compound 0101]
IC50 [1, 3]: < 100 nM
IC50 [2, 4]: 1000 to 10000 nM

C[C@@H]1CN(c2cnc3ccc(NC(=O)NC4CCCC4)nc3c2)C[C@H](C)O1 [Compound 0085]
IC50 [1, 3]: 100 to 1000 nM
IC50 [2, 4]: < 100 nM

Cn1cc(-c2cc3nc(NC(=O)NC4CCCC4)ccc3nc2N)cn1 [Compound 0227]
IC50 [1, 3]: 1000 to 10000 nM
IC50 [2, 4]: < 100 nM

O=C(NCCC(F)(F)F)Nc1ccc2ncc(-c3cn[nH]c3)cc2n1 [Compound 0115]
IC50 [1, 3]: < 100 nM
IC50 [2, 4]: < 100 nM

COCCNCCn1cc(-c2cnc3ccc(NC(=O)NC4CCCC4)nc3c2)cn1 [Compound 0047]
IC50 [1, 3]: 100 to 1000 nM
IC50 [2, 4]: < 100 nM

CN(C)CCCn1cc(-c2cnc3ccc(NC(=S)NC4CCCC4)nc3c2)cn1 [Compound 0221]
IC50 [1, 3]: < 100 nM
IC50 [2, 4]: < 100 nM

O=C(Nc1ccc2ncc(-c3cc(O)no3)cc2n1)NC1CCCC1 [Compound 0128]
IC50 [1, 3]: 1000 to 10000 nM
IC50 [2, 4]: 100 to 1000 nM

Cc1n[nH]cc1-c1cnc2ccc(NC(=O)NC3CCCC3)nc2c1 [Compound 0043]
IC50 ([1]; read-out: ERK2, IC50): 7 nM
IC50 [1, 3]: < 100 nM
IC50 ([2]; read-out: PI3Kα, IC50): 11 nM
IC50 [2, 4]: < 100 nM

CC(C)(C)NC(=O)Nc1ccc2ncc(-c3cn[nH]c3)cc2n1 [Compound 0059]
IC50 [1, 3]: < 100 nM
IC50 [2, 4]: < 100 nM

CC1(NC(=O)Nc2ccc3ncc(-c4cnn(C5CCNCC5)c4)cc3n2)CCCC1 [Compound 0254]
IC50 [1, 3]: 100 to 1000 nM
IC50 [2, 4]: < 100 nM

O=C(NCCCN1CCOCC1)Nc1ccc2ncc(-c3cn[nH]c3)cc2n1 [Compound 0201]
IC50 [1, 3]: 100 to 1000 nM
IC50 [2, 4]: 1000 to 10000 nM

O=C(Nc1ccc2ncc(-c3cnn(CCCN4CC[C@H](F)C4)c3)cc2n1)NC1CCCC1 [Compound 0247]
IC50 [1, 3]: < 100 nM
IC50 [2, 4]: < 100 nM

CN(C)CCCn1cc(-c2cnc3ccc(NC(=O)NC4(C)CCCC4)nc3c2)cn1 [Compound 0258]
IC50 [1, 3]: 100 to 1000 nM
IC50 [2, 4]: < 100 nM

COc1cc(-c2cnc3ccc(NC(=O)NC4CCCC4)nc3c2)ccc1O [Compound 0001]
IC50 [1, 3]: < 100 nM
IC50 [2, 4]: < 100 nM

O=C(NCC1C[C@@H]2CC[C@H]1C2)Nc1ccc2ncc(-c3cn[nH]c3)cc2n1 (some centres unmarked) [Compound 0110]
IC50 [1, 3]: < 100 nM
IC50 [2, 4]: < 100 nM

O=C(NCCCCN1CCCC1)Nc1ccc2ncc(-c3cn[nH]c3)cc2n1 [Compound 0177]
IC50 [1, 3]: 100 to 1000 nM
IC50 [2, 4]: > 10000 nM

O=C(Nc1ccc2ncc(-c3cn[nH]n3)cc2n1)NC1CCCC1 [Compound 0156]
IC50 [1, 3]: < 100 nM
IC50 [2, 4]: < 100 nM

CN(CCCNC(=O)Nc1ccc2ncc(-c3cn[nH]c3)cc2n1)c1ccccc1 [Compound 0105]
IC50 [1, 3]: < 100 nM
IC50 [2, 4]: 100 to 1000 nM

Cn1cc(-c2cnc3ccc(NC(=S)NC(=O)c4ccccc4)nc3c2)cn1 [Compound 0251]
IC50 [1, 3]: 100 to 1000 nM
IC50 [2, 4]: 100 to 1000 nM

C[C@@H](C[C@H](C)Oc1ccccc1)NC(=O)Nc1ccc2ncc(-c3cn[nH]c3)cc2n1 [Compound 0163]
IC50 [1, 3]: 100 to 1000 nM
IC50 [2, 4]: 100 to 1000 nM

CN(CCNC(=O)Nc1ccc2ncc(-c3cn[nH]c3)cc2n1)Cc1ccccc1 [Compound 0108]
IC50 [1, 3]: < 100 nM
IC50 [2, 4]: 100 to 1000 nM

COc1cc(Nc2cnc3ccc(NC(=O)NC4CCCC4)nc3c2)cc(OC)c1OC [Compound 0009]
IC50 ([1]; read-out: ERK2, IC50): 1220 nM
IC50 ([2]; read-out: PI3Kα, IC50): < 3 nM
IC50 [2, 4]: < 100 nM

O=C(Nc1ccc2ncc(-c3cnn(CCCN4CCNCC4)c3)cc2n1)NC1CCCC1 [Compound 0212]
IC50 [1, 3]: < 100 nM
IC50 [2, 4]: < 100 nM

O=C(Nc1ccc2ncc(-c3cn[nH]c3)cc2n1)N[C@H]1CCNC1 [Compound 0074]
IC50 [1, 3]: < 100 nM
IC50 [2, 4]: 1000 to 10000 nM

C[C@H](C[C@@H](C)Oc1ccccc1)NC(=O)Nc1ccc2ncc(-c3cn[nH]c3)cc2n1 [Compound 0161]
IC50 [1, 3]: < 100 nM
IC50 [2, 4]: 100 to 1000 nM

O=C(Nc1ccc2ncc(-c3cnn(CCN4CCCCC4)c3)cc2n1)NC1CCCC1 [Compound 0036]
IC50 [1, 3]: < 100 nM
IC50 [2, 4]: < 100 nM

CN1CC(Cn2cc(-c3cnc4ccc(NC(=O)NC5CCCC5)nc4c3)cn2)C1 [Compound 0147]
IC50 [1, 3]: < 100 nM
IC50 [2, 4]: < 100 nM

O=C(NCCCCc1ccccc1F)Nc1ccc2ncc(-c3cnn(CCCN4CCOCC4)c3)cc2n1 [Compound 0183]
IC50 [1, 3]: < 100 nM
IC50 [2, 4]: < 100 nM

CN(C)CCOc1cc(-c2cnc3ccc(NC(=O)NC4CCCC4)nc3c2)ccc1O [Compound 0016]
IC50 [1, 3]: < 100 nM
IC50 [2, 4]: < 100 nM

CN1CCN(CCCn2cc(-c3cnc4ccc(NC(=O)NC5(C)CCCC5)nc4c3)cn2)CC1 [Compound 0257]
IC50 [1, 3]: 100 to 1000 nM
IC50 [2, 4]: < 100 nM

O=C(NCCCCC1CCCCC1)Nc1ccc2ncc(-c3cnn(CCCN4CCOCC4)c3)cc2n1 [Compound 0178]
IC50 [1, 3]: 100 to 1000 nM
IC50 [2, 4]: 100 to 1000 nM

O=C(NCC1CC1)Nc1ccc2ncc(-c3cn[nH]c3)cc2n1 [Compound 0186]
IC50 [1, 3]: < 100 nM
IC50 [2, 4]: 100 to 1000 nM

CCNC(=O)Nc1ccc2ncc(-c3cn[nH]c3)cc2n1 [Compound 0054]
IC50 [1, 3]: < 100 nM
IC50 [2, 4]: 100 to 1000 nM

C[C@H](C[C@H](C)Oc1ccccc1)NC(=O)Nc1ccc2ncc(-c3cn[nH]c3)cc2n1 [Compound 0170]
IC50 [1, 3]: < 100 nM
IC50 [2, 4]: 100 to 1000 nM

S=C(Nc1ccc2ncc(-c3cnn(CCN4CCNCC4)c3)cc2n1)NC1CCCC1 [Compound 0222]
IC50 [1, 3]: < 100 nM
IC50 [2, 4]: < 100 nM

COc1cc(-c2cnc3ccc(NC(=O)NC4CCCC4)nc3c2)ccn1 [Compound 0022]
IC50 [1, 3]: < 100 nM
IC50 [2, 4]: < 100 nM

CC(C)(C)OC(=O)n1cc(-c2cnc3ccc(NC(=O)NC4CCCc5ccccc54)nc3c2)cn1 (centres unmarked) [Compound 0066]
IC50 [1, 3]: < 100 nM
IC50 [2, 4]: 1000 to 10000 nM

CC(C)(C)OC(=O)N1CCN(CCCn2cc(-c3cnc4ccc(NC(=O)NC5CCCC5)nc4c3)cn2)CC1 [Compound 0211]
IC50 [1, 3]: < 100 nM
IC50 [2, 4]: < 100 nM

O=C(Nc1ccc2ncc(-c3ccc(CO)cc3)cc2n1)NC1CCCC1 [Compound 0042]
IC50 [1, 3]: < 100 nM
IC50 [2, 4]: 100 to 1000 nM

O=C(Nc1ccc2ncc(-c3cn[nH]c3)cc2n1)N[C@H]1CCc2ccccc21 [Compound 0077]
IC50 [1, 3]: < 100 nM
IC50 [2, 4]: 100 to 1000 nM
